In patent publication US5236928A, “Imidazole derivatives bearing acidic functional groups at the 5-position, their compositions and methods of use as angiotensin II antagonists” (Merck & Co., Inc., priority 1992, dated 1993):

Tested on: BALB 3T3/H-ras
Test: BALB 3T3/H-ras inhibition activity
Type: cell-based

CC(C)C(C)CC[C@@H](C)C1CCN=C2C3=C(CC[C@@]21C)[C@@]1(C)CC[C@H](O)CC1CC3 (stereo partly shown) [UCA1064-B]
BALB 3T3/H-ras Inhibition Activity IC50: 3.5 µg/mL
